From PMC9556824, “Design, synthesis and computational study of new benzofuran hybrids as dual PI3K/VEGFR2 inhibitors targeting cancer” (Scientific Reports, 2022)

What was measured:
[1] = test system: Hepatocellular carcinoma (HePG2); assay: Antitumor screening using MTT assay; type: cell-based, human; settings: Homo sapiens; for viability at 1.56 µM: Conc. 1.56 µM; for viability at 1.56 µM / viability at 3.125 µM / viability at 6.25 µM / viability at 12.5 µM / viability at 25 µM / viability at 50 µM / viability at 100 µM: read-out: Average of Relative viability of cells (%); for viability at 3.125 µM: Conc. 3.125 µM; for viability at 6.25 µM: Conc. 6.25 µM; for viability at 12.5 µM: Conc. 12.5 µM; for viability at 25 µM: Conc. 25 µM; for viability at 50 µM: Conc. 50 µM; for viability at 100 µM: Conc. 100 µM; for IC50: mean ± SD, n = 3, read-out: In-vitro cytotoxicity IC50 (µM) HePG2
Excerpt: (§2) Hepatocellular carcinoma (HePG2), mammary gland breast cancer (MCF-7), epithelioid carcinoma cervix cancer (Hela), and human prostate cancer were included on the panel (PC3). […] The cell lines were obtained from the American Type Culture Collection (ATCC) through VACSERA, a Cairo-based holding firm for biological goods and vaccines.
(§3) The panel consisted of hepatocellular carcinoma (HePG2), mammary gland breast cancer (MCF-7), epithelioid carcinoma cervix cancer (Hela) and human prostate cancer (PC3). Human lung fibroblast (WI38) was used to assay the cytotoxicity effect on normal cell. The cell lines were obtained from ATCC via Holding company for biological products and vaccines (VACSERA), Cairo, Egypt. The cytotoxic activity was defined as the concentration of the compound that causes 50% growth inhibition compared with the growth of untreated cells.

[2] = In vitro cytotoxicity against human normal cell line (MTT); type: cell-based; settings: human, WI38 human lung fibroblast cells (normal cell line), WI38, read-out: Average of Relative viability of cells (%); for viability at 1.56 µM: Conc. 1.56 µM; for viability at 3.125 µM: Conc. 3.125 µM; for viability at 6.25 µM: Conc. 6.25 µM; for viability at 12.5 µM: Conc. 12.5 µM; for viability at 25 µM: Conc. 25 µM; for viability at 50 µM: Conc. 50 µM; for viability at 100 µM: Conc. 100 µM
Excerpt: (§1) The anticancer agent's selectivity for cancer cells is a critical consideration for any researcher, as it can decrease the molecule's adverse effects on normal human cells.

[3] = test system: human lung fibroblast (WI38); assay: as above; type: cell-based; settings: Homo sapiens, WI-38, human normal cell line WI38; mean ± SD, n = 3
Excerpt: as §1

[4] = test system: mammary gland breast cancer (MCF-7); assay: Antitumor screening using MTT assay; settings: Homo sapiens; for viability at 1.56 µM / viability at 3.125 µM / viability at 6.25 µM / viability at 12.5 µM / viability at 25 µM / viability at 50 µM / viability at 100 µM: MCF7, read-out: Average of Relative viability of cells (%); for IC50: MCF7, read-out: In-vitro cytotoxicity IC50 (µM) MCF-7
Excerpt: as §2, §3

[5] = test system: epithelioid carcinoma cervix cancer (Hela); assay: Antitumor screening using MTT assay; settings: Homo sapiens, HeLa; for viability at 1.56 µM / viability at 3.125 µM / viability at 6.25 µM / viability at 12.5 µM / viability at 25 µM / viability at 50 µM / viability at 100 µM: read-out: Average of Relative viability of cells (%); for IC50: read-out: In-vitro cytotoxicity IC50 (µM) Hela
Excerpt: as §2, §3

[6] = test system: human prostate cancer (PC3); assay: Antitumor screening using MTT assay; settings: Homo sapiens; for viability at 1.56 µM / viability at 3.125 µM / viability at 6.25 µM / viability at 12.5 µM / viability at 25 µM / viability at 50 µM / viability at 100 µM: read-out: Average of Relative viability of cells (%); for IC50: read-out: In-vitro cytotoxicity IC50 (µM) PC3
Excerpt: as §2, §3

human PI3Kα = human PI3Kα (Homo sapiens, UniProt P42336); assay: Human PI3Kα enzyme inhibition assay (ELISA)
Sequence of human PI3Kα (P42336 whole entry): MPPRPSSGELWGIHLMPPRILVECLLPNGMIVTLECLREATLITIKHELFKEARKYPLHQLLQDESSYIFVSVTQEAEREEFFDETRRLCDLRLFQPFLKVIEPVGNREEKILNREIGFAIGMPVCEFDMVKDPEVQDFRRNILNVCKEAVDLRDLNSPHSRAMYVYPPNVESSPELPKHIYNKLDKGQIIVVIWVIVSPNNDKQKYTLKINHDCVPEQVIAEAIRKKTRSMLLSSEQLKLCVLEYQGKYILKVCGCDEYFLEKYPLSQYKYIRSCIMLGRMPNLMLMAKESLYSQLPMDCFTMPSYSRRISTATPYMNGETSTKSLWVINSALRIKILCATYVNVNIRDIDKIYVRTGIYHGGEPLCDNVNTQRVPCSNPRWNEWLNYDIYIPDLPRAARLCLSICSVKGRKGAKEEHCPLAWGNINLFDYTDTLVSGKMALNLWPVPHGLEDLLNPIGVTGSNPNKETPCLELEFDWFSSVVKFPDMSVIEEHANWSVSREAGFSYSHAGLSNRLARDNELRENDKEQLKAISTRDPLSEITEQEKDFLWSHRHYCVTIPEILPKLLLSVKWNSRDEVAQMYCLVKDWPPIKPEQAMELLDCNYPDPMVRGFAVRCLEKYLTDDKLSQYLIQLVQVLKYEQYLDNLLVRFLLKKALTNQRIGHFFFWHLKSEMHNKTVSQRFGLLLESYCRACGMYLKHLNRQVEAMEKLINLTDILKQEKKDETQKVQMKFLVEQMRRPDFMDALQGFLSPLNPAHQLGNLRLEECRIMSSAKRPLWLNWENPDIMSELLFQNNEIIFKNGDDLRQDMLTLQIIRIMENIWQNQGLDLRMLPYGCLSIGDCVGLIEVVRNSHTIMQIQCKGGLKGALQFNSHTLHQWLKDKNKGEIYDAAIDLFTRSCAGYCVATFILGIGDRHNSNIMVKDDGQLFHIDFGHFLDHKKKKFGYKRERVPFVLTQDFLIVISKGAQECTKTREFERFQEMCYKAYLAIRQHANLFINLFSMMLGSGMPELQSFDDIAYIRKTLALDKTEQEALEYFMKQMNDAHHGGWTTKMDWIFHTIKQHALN
Sequence of human PI3Kα (P27986 whole entry partner): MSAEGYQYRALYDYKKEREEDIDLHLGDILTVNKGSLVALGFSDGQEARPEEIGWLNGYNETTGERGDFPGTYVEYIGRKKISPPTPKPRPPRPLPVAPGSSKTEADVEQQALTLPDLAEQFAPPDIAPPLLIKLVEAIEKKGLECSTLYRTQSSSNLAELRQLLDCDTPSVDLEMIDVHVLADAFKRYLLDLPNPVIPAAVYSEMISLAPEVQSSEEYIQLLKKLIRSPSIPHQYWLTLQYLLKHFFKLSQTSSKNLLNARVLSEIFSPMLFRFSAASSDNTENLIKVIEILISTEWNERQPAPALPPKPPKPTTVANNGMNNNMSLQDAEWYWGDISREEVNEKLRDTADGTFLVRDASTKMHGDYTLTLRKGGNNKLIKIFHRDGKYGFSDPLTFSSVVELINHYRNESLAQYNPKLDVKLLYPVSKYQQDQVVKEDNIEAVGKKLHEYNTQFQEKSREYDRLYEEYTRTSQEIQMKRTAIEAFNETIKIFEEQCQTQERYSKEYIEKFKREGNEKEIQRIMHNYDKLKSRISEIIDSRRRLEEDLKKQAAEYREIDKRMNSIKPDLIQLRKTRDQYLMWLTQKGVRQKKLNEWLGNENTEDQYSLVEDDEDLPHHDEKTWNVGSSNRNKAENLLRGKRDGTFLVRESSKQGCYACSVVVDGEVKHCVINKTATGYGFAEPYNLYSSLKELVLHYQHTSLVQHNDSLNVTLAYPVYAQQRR
Protocol: PI3Kα and VEGFR-2 activity were verified by enzyme-linked immunosorbent assay (ELISA) assay technique. […] Then, the mean absorbance of each group of standard and tested compounds was determined. The standard curve was drawn on log–log paper with the absorbance on the Y-axis and the standard concentration on the X-axis.

Question: Which viability at 1.56 µM [1] does the source give for `O=C(/C=C/N1CCCCC1)c1cc2ccccc2o1` [Compound 5, (E)-1-(benzofuran-2-yl)-3-(piperidin-1-yl)prop-2-en-1-one] here?
Answer: Its viability at 1.56 µM is 100%.

Question: What about the viability at 3.125 µM [1] of the same compound?
Answer: Its viability at 3.125 µM is 76.8%.

Question: And the viability at 6.25 µM [1]?
Answer: Its viability at 6.25 µM is 65%.

Question: And the viability at 12.5 µM [1]?
Answer: Its viability at 12.5 µM is 42.3%.

Question: What about the viability at 25 µM [1] of the same compound?
Answer: Its viability at 25 µM is 37.2%.

Question: And the viability at 50 µM [1]?
Answer: Its viability at 50 µM is 24%.

Question: And the viability at 100 µM [1]?
Answer: Its viability at 100 µM is 15.3%.

Question: And the IC50 [1]?
Answer: The IC50 was 12.6 ± 1 µM.

Question: And the melting point?
Answer: Its melting point is 136 to 138 °C.

Question: What about the viability at 1.56 µM [2] of the same compound?
Answer: Its viability at 1.56 µM is 100%.

Question: And the viability at 3.125 µM [2]?
Answer: Its viability at 3.125 µM is 100%.

Question: What about the viability at 6.25 µM [2] of the same compound?
Answer: The viability at 6.25 µM was 100%.

Question: What about the viability at 12.5 µM [2] of the same compound?
Answer: The viability at 12.5 µM was 91.8%.

Question: What about the viability at 25 µM [2] of the same compound?
Answer: Its viability at 25 µM is 72.3%.

Question: And the viability at 50 µM [2]?
Answer: Its viability at 50 µM is 57.1%.

Question: And the viability at 100 µM [2]?
Answer: The viability at 100 µM was 38.2%.

Question: What about the IC50 [3] of the same compound?
Answer: Its IC50 is 64 ± 3.1 µM.

Question: And the viability at 1.56 µM [4]?
Answer: Its viability at 1.56 µM is 100%.

Question: And the viability at 3.125 µM [4]?
Answer: The viability at 3.125 µM was 96.2%.

Question: And the viability at 6.25 µM [4]?
Answer: Its viability at 6.25 µM is 72.1%.

Question: What about the viability at 12.5 µM [4] of the same compound?
Answer: Its viability at 12.5 µM is 54.9%.

Question: And the viability at 25 µM [4]?
Answer: Its viability at 25 µM is 41.8%.

Question: What about the viability at 50 µM [4] of the same compound?
Answer: Its viability at 50 µM is 32.5%.

Question: And the viability at 100 µM [4]?
Answer: The viability at 100 µM was 20.4%.

Question: What about the IC50 [4] of the same compound?
Answer: The IC50 was 19.9 ± 1.5 µM.

Question: And the viability at 1.56 µM [5]?
Answer: The viability at 1.56 µM was 100%.

Question: And the viability at 3.125 µM [5]?
Answer: The viability at 3.125 µM was 96.6%.

Question: What about the viability at 6.25 µM [5] of the same compound?
Answer: Its viability at 6.25 µM is 79.3%.

Question: And the viability at 12.5 µM [5]?
Answer: The viability at 12.5 µM was 62.9%.

Question: What about the viability at 25 µM [5] of the same compound?
Answer: The viability at 25 µM was 51.4%.

Question: What about the viability at 50 µM [5] of the same compound?
Answer: The viability at 50 µM was 38.1%.

Question: And the viability at 100 µM [5]?
Answer: Its viability at 100 µM is 26.3%.

Question: And the IC50 [5]?
Answer: Its IC50 is 28.3 ± 2.2 µM.

Question: What about the viability at 1.56 µM [6] of the same compound?
Answer: The viability at 1.56 µM was 100%.

Question: And the viability at 3.125 µM [6]?
Answer: The viability at 3.125 µM was 100%.

Question: And the viability at 6.25 µM [6]?
Answer: The viability at 6.25 µM was 92.7%.

Question: What about the viability at 12.5 µM [6] of the same compound?
Answer: The viability at 12.5 µM was 67.2%.

Question: What about the viability at 25 µM [6] of the same compound?
Answer: Its viability at 25 µM is 58.1%.

Question: And the viability at 50 µM [6]?
Answer: Its viability at 50 µM is 47.8%.

Question: And the viability at 100 µM [6]?
Answer: Its viability at 100 µM is 32.9%.

Question: What about the IC50 [6] of the same compound?
Answer: The IC50 was 41.5 ± 2.6 µM.

Question: With `C/C(=N\N=C\c1ccc(O)cc1)c1cc2ccccc2o1` [Compound 11, (E)-1-[1-(benzofuran-2-yl)ethylidene]-2-((E)-4-hydroxybenzylidene)hydrazine] as the compound, how does the IC50 [1] read?
Answer: The IC50 was 84.9 ± 3.2 µM.

Question: What about the melting point of the same compound?
Answer: The melting point was 154 to 156 °C.

Question: And the IC50 [3]?
Answer: The IC50 was 43.2 ± 2.9 µM.

Question: And the IC50 [4]?
Answer: Its IC50 is > 100 µM.

Question: What about the IC50 [5] of the same compound?
Answer: The IC50 was 89.3 ± 3.2 µM.

Question: What about the IC50 [6] of the same compound?
Answer: Its IC50 is > 100 µM.

Question: Which results are given for `C\C(=N/N=C/C=C/c1ccccc1)c1cc2ccccc2o1` [Compound 12]?
Answer: viability at 1.56 µM [1]: 100%; viability at 3.125 µM [1]: 100%; viability at 6.25 µM [1]: 100%; viability at 12.5 µM [1]: 91.3%; viability at 25 µM [1]: 70.5%; viability at 50 µM [1]: 54%; viability at 100 µM [1]: 39.4%; IC50 [1]: 62 ± 3.2 µM; melting point: 141 to 143 °C; viability at 1.56 µM [2]: 100%; viability at 3.125 µM [2]: 100%; viability at 6.25 µM [2]: 91.3%; viability at 12.5 µM [2]: 78.1%; viability at 25 µM [2]: 61.9%; viability at 50 µM [2]: 52.5%; viability at 100 µM [2]: 41%; IC50 [3]: 56.5 ± 3.2 µM; viability at 1.56 µM [4]: 100%; viability at 3.125 µM [4]: 100%; viability at 6.25 µM [4]: 94.7%; viability at 12.5 µM [4]: 81.8%; viability at 25 µM [4]: 70.2%; viability at 50 µM [4]: 57.1%; viability at 100 µM [4]: 43.2%; IC50 [4]: 68.4 ± 3.6 µM; viability at 1.56 µM [5]: 100%; viability at 3.125 µM [5]: 100%; viability at 6.25 µM [5]: 86.6%; viability at 12.5 µM [5]: 72.3%; viability at 25 µM [5]: 59.2%; viability at 50 µM [5]: 41.8%; viability at 100 µM [5]: 34.1%; IC50 [5]: 39.8 ± 2.7 µM; viability at 1.56 µM [6]: 100%; viability at 3.125 µM [6]: 100%; viability at 6.25 µM [6]: 98.4%; viability at 12.5 µM [6]: 86.6%; viability at 25 µM [6]: 71.7%; viability at 50 µM [6]: 55%; viability at 100 µM [6]: 47.3%; IC50 [6]: 74.4 ± 3.9 µM

Question: For `O=c1cc(N2CCOCC2)oc2c(-c3ccccc3)cccc12` [LY294002, reference compound], which PI3K-α %inh (human PI3Kα; conc 0.1 (unit not given)) is on record?
Answer: The PI3K-α %inh was 8.66%.

Question: And the PI3K-α %inh (human PI3Kα; conc 1 (unit not given))?
Answer: The PI3K-α %inh was 21.2%.

Question: What about the PI3K-α %inh (human PI3Kα; conc 10 (unit not given)) of the same compound?
Answer: The PI3K-α %inh was 54.8%.

Question: And the PI3K-α %inh (human PI3Kα; conc 100 (unit not given))?
Answer: Its PI3K-α %inh is 76.7%.
